PubChem BioAssay AID1963985 (Molecular Pharmacology Branch, DTP, NCI, 2024)

Test system: 252836-082-R-J2-PDC tumor spheroids, viability
Assay: Anticancer human tumor 252836-082-R-J2-PDC patient-derived head and neck squamous cell carcinoma cell line growth inhibition [PI3K]
Settings: spheroids with HUVEC and MSC; for viability, T/C: stronger effect = lower value
How it was run: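 High-throughput combination screen: PI3K inhibitors crossed with targeted small molecules on complex spheroids of tumor cells, HUVEC and MSCs at 37 degrees C, 5% CO2. Top concentration was at or near clinical Cmax (otherwise 10 microM), with half-log decrements.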
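Further: spheroids exposed to agents for seven days before readout.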
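Wherever viability, T/C is given: percent of vehicle DMSO control viability so 100% = untreated growth.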

Compound: Cn1ncnc1[C@H]1c2n[nH]c(=O)c3cc(F)cc(c23)N[C@@H]1c1ccc(F)cc1
- viability, T/C (compound 0.000316 µM): 97% [middle of 4 runs]
- viability, T/C (compound 0.001 µM): 95.9% [middle of 4 runs]
- viability, T/C (compound 0.00316 µM): 89.2% [middle of 4 runs]
- viability, T/C (compound 0.01 µM): 93.7% [middle of 4 runs]
- viability, T/C (compound 0.0316 µM): 69.4% [middle of 4 runs]
- viability, T/C (compound 0.1 µM): 55.5% [middle of 4 runs]
- IC50 (curve of compound): > 0.1 µM

Compound: CNC(=O)c1ccc(N2C(=S)N(c3ccc(C#N)c(C(F)(F)F)c3)C(=O)C2(C)C)cc1F + COc1c(OCCCN2CCOCC2)ccc2c3n(c(=NC(=O)c4cnc(N)nc4)nc12)CCN3
- IC50 (curve of first compound, second compound 0.00316 µM): > 10 µM
- IC50 (curve of first compound, second compound 0.01 µM): > 10 µM
- IC50 (curve of first compound, second compound 0.0316 µM): > 10 µM
- IC50 (curve of first compound, second compound 0.1 µM): < 0.0316 µM
- IC50 (curve of first compound, second compound 0.316 µM): < 0.0316 µM
- IC50 (curve of first compound, second compound 1 µM): < 0.0316 µM
- viability, T/C (second compound 0.00316 µM, first compound 0.0316 µM): 97.9%
- viability, T/C (second compound 0.00316 µM, first compound 0.1 µM): 85.8%
- viability, T/C (second compound 0.00316 µM, first compound 0.316 µM): 87.3%
- viability, T/C (second compound 0.00316 µM, first compound 1 µM): 96.5%
- viability, T/C (second compound 0.00316 µM, first compound 3.16 µM): 96.2%
- viability, T/C (second compound 0.00316 µM, first compound 10 µM): 77.7%
- viability, T/C (second compound 0.01 µM, first compound 0.0316 µM): 73%
- viability, T/C (second compound 0.01 µM, first compound 0.1 µM): 64.5%
- viability, T/C (second compound 0.01 µM, first compound 0.316 µM): 79.5%
- viability, T/C (second compound 0.01 µM, first compound 1 µM): 71.9%
- viability, T/C (second compound 0.01 µM, first compound 3.16 µM): 76.1%
- viability, T/C (second compound 0.01 µM, first compound 10 µM): 80%
- viability, T/C (second compound 0.0316 µM, first compound 0.0316 µM): 60.7%
- viability, T/C (second compound 0.0316 µM, first compound 0.1 µM): 60.1%
- viability, T/C (second compound 0.0316 µM, first compound 0.316 µM): 49.9%
- viability, T/C (second compound 0.0316 µM, first compound 1 µM): 60.9%
- viability, T/C (second compound 0.0316 µM, first compound 3.16 µM): 62.8%
- viability, T/C (second compound 0.0316 µM, first compound 10 µM): 54.3%
- viability, T/C (second compound 0.1 µM, first compound 0.0316 µM): 36%
- viability, T/C (second compound 0.1 µM, first compound 0.1 µM): 38%
- viability, T/C (second compound 0.1 µM, first compound 0.316 µM): 36%
- viability, T/C (second compound 0.1 µM, first compound 1 µM): 36.3%
- viability, T/C (second compound 0.1 µM, first compound 3.16 µM): 33.5%
- viability, T/C (second compound 0.1 µM, first compound 10 µM): 34.5%
- viability, T/C (second compound 0.316 µM, first compound 0.0316 µM): 19%
- viability, T/C (second compound 0.316 µM, first compound 0.1 µM): 17.2%
- viability, T/C (second compound 0.316 µM, first compound 0.316 µM): 17.1%
- viability, T/C (second compound 0.316 µM, first compound 1 µM): 17.3%
- viability, T/C (second compound 0.316 µM, first compound 3.16 µM): 17.4%
- viability, T/C (second compound 0.316 µM, first compound 10 µM): 13.4%
- viability, T/C (second compound 1 µM, first compound 0.0316 µM): 4.5%
- viability, T/C (second compound 1 µM, first compound 0.1 µM): 3.94%
- viability, T/C (second compound 1 µM, first compound 0.316 µM): 5.87%
- viability, T/C (second compound 1 µM, first compound 1 µM): 4.83%
- viability, T/C (second compound 1 µM, first compound 3.16 µM): 4.62%
- viability, T/C (second compound 1 µM, first compound 10 µM): 4.12%
